Data published in patent US20080318803A1, “Biomarkers for Monitoring Impdh Pathway Inhibition” (VERTEX PHARMACEUTICALS, priority 2004, published 2008).
Read-outs that look alike come from different tables or passages of the source.

Tests used:
PBMCs PHA-T cell = assay: PBMC proliferation assay (PHA-stimulated T cells); format: cell-based, human; conditions: for IC50: Homo sapiens, PBMC
From the text: Monitoring gene expression patterns offers an alternative approach for optimizing the therapeutic window as compared with the traditional method of measuring drug concentrations in blood and correlating either the AUC or Cmax levels with a clinical response. Towards that end, the inventors have comprehensively evaluated several genes affected by treatment with two distinct IMPDH inhibitors in vitro, as potential readouts for assessing their biological activity. The genes that are listed in Tables I through VIII are particularly useful in the present invention. These genes were identified using the specific methods as follows: Most cell culture reagents, unless specified otherwise, were obtained from Gibco-BRL or JRH Biologicals. Complete RPMI was prepared by adding up to a final of 10% heat-inactivated fetal bovine serum (FBS), 55 μM β mercaptoethanol, 50 units/mL penicillin with 50 μg/mL streptomycin, 300 μg/ml L-glutamine and 10 mM HEPES pH 7.5 to RPMI1640. Stock solutions of Phyto-hemagglutinin (PHA-P, Difco) was prepared in FBS-free RPMI and stored at −20° C. VX-944, and MPA (Sigma-Aldrich or Calbiochem), were dissolved in DMSO at a concentration of 20 mM and stored at −20° C.
Peripheral blood mononuclear cells (PBMCs) and T cells were isolated as follows: Human venous blood was drawn from healthy volunteers using heparin as an anti-coagulant. PBMCs were isolated from blood by centrifugation over Ficoll-paque gradient or CPT tubes (Becton-Dickinson, Calif.), using standard conditions. PBMCs were harvested, washed and resuspended in complete RPMI, counted and diluted to 1×10^6 cells/ml.
In order to monitor PBMC proliferation assay, human PBMC derived T cells (5×10^4 cells/well), were added to 96-well plates. PHA was added up to a final concentration of 10-20 μg/mL per well for stimulating T cells. The mitogen SPAS was used at a final concentration of 2 mg/mL. DMSO was maintained at a final concentration of 0.1%.

HL-60 cells = assay: Affymetrix array transcript profiling in HL-60 cells, 14 h (early) and 30 h (late); format: cell-based, human
Experimental: The above agents were tested in HL-60 cells at a concentration of 500 nM for VX-944 and 1000 nM for MPA or with 0.1% DMSO as the vehicle control. The cells were harvested at 14 or 30 hours post addition of compound or vehicle. Briefly, the culture medium was removed at the appropriate time-points and the cells washed with PBS. The cells were then harvested, and pelleted by-gentle centrifugation. The supernatant was discarded and the pellets snap-frozen on an ethanol/dry-ice slurry. RNA was isolated from cells by using a RNEasy kit from Qiagen. RNAs were quality controlled using the Agilent 2100 Bioanalyzer to determine the presence of RNAs.
Data from the arrays corresponding to VX-944 and MPA at the two time-points—14 hours (Early) and 30 hours (Late) were analyzed using Spotfire™, microarray data analysis software. Some of the data analysis parameters used are outlined below:
a) All the arrays were normalized by using trimmed means, with a 5% exclusion limit
b) Only genes present in at least 5 of the 6 chips used for the analyses were included in the genesets
c) Only statistically significant genes (ANOVA, p<0.05) were included in the final analyses to generate gene lists.
At the late (30 h) time-point, 335 genes were identified as overlapping between the VX-944 and MPA datasets. […] With MPA 66 genes are in common between the two time-points. As to a comparison between the two data sets, of the 102 genes modulated by VX-944 and the 66 genes modulated by MPA, 43 genes […]. To add additional value to the gene lists and provide additional information to the investigator, the genes underlying each of these expression patterns was queried against publicly available databases. These databases included Locus Link, Gene Cards, KEGG, GO annotations, OMIM, PubMed. The information gathered from such an analysis is organized below in data tables.

[1] = tested on: genes responsive to IMPDH inhibition; assay: Gene chip analysis of genes responsive to IMPDH inhibition (18 gene chips, 8793 genes); format: cell-based; conditions: for No. genes modulated: of 3421 genes common to all 18 gene chips
From the text: The present invention is directed to methods and compositions for using biomarkers that are responsive to changes in IMPDH activity levels.

PBMC cells = assay: Gene expression changes in resting and PHA-stimulated (proliferating) PBMCs treated with VX-944; format: cell-based, human; conditions: proliferating lymphocytes; out of 67 genes
both IMPDH isozymes = conditions: cited from earlier work
[2] = tested on: human peripheral lymphocytes; conditions: cited from earlier work
[3] = read-out: PBMCs PHA-T cell IC50
[4] = read-out: PHA-T cell IC50 in the presence of guanosine
[5] = common to early (14 h) and late (30 h)
[6] = treated vs. DMSO, early (14 h), VX-944 500 nM, MPA 1000 nM

Compound | Ratio of PHA-T cell IC50 in the presence and absence of guanosine (PBMCs PHA-T cell) | IC50 (PBMCs PHA-T cell; [3]) [nM] | IC50 (PBMCs PHA-T cell; [4]) [nM] | Number of Genes Downregulated (HL-60 cells; [5]) | Number of Genes Total (HL-60 cells; [5]) | Number of Genes Upregulated (HL-60 cells; [5]) | Number of Genes Downregulated (HL-60 cells; treated vs. DMSO, early (14 h)) | Number of Genes Total (HL-60 cells; treated vs. DMSO, early (14 h)) | Number of Genes Upregulated (HL-60 cells; [6]) | Number of Genes Downregulated (HL-60 cells; treated vs. DMSO, late (30 h)) | Number of Genes Total (HL-60 cells; treated vs. DMSO, late (30 h)) | Number of Genes Upregulated (HL-60 cells; treated vs. DMSO, late (30 h)) | No. genes modulated: Decreased [1] | No. genes modulated: Increased [1] | No. genes modulated [1] | also measured
COc1c(C)c2c(c(O)c1C/C=C(\C)CCC(=O)O)C(=O)OC2 [MPA, Mycophenolic acid] | >224 | 89 | > 20000 | 0 | 66 | 66 | 0 | 105 | 105 | 560 | 1162 | 602 | 36 | 39 | 75 | FOLD CHANGE (MPA, EARLY) (HL-60 cells; gene ALG6): 1.5; FOLD CHANGE (MPA, EARLY) (HL-60 cells; gene C6orf18): 1.5; FOLD CHANGE (MPA, EARLY) (HL-60 cells; gene C8orf2): 1.5; FOLD CHANGE (MPA, EARLY) (HL-60 cells; gene C21orf4): 1.5; FOLD CHANGE (MPA, EARLY) (HL-60 cells; gene CLECSF5): 1.5; FOLD CHANGE (MPA, EARLY) (HL-60 cells; gene FBXO5): 1.6; FOLD CHANGE (MPA, EARLY) (HL-60 cells; gene FLJ10852 (HIP14L)): 1.5; FOLD CHANGE (MPA, EARLY) (HL-60 cells; gene KLHL2): 1.6; FOLD CHANGE (MPA, EARLY) (HL-60 cells; gene MGC13024): 1.5; FOLD CHANGE (MPA, EARLY) (HL-60 cells; gene MLC-B (MRLC2)): 1.8; FOLD CHANGE (MPA, EARLY) (HL-60 cells; gene RAGD): 1.5; FOLD CHANGE (MPA, EARLY) (HL-60 cells; gene RPAC2 (POLR1D)): 1.5; FOLD CHANGE (MPA, EARLY) (HL-60 cells; gene SNX10): 1.5; FOLD CHANGE (MPA, EARLY) (HL-60 cells; gene TMEM8): 1.7; FOLD CHANGE (MPA, EARLY) (HL-60 cells; gene TOPK): 1.5
COc1cc(NC(=O)Nc2cccc(CNC(=O)O[C@H]3CCOC3)c2)ccc1-c1cnco1 [VX-497] | 62 | 105 | 6500 |  |  |  |  |  |  |  |  |  |  |  |  | 
CC[C@H](CC#N)OC(=O)N[C@@H](C)c1cccc(NC(=O)Nc2ccc(-c3cnco3)c(OC)c2)c1 [VX-944] | 373 | 21 | 7800 | 0 | 102 | 102 | 119 | 291 | 172 | 0 | 434 | 434 | 60 | 46 | 106 | potency in cell assays relative to MPA (PBMCs PHA-T cell; VX-944 vs MPA): 3-4 fold; number of genes implicated in cancers that are down-regulated (PBMC cells): 4; Ki (both IMPDH isozymes): 7 to 10 nM; inhibition of lymphocyte proliferation on addition of guanosine ([2]; 50 μM guanosine): alleviated; potency in inhibiting lymphocyte proliferation compared with other IMPDH inhibitors ([2]; stimulated with either T or B-cell mitogens): more potent than VX-497 or MPA; IC50 ([2]; stimulated with either T or B-cell mitogens, read-out: IC50, inhibition of proliferation of human peripheral lymphocytes): 20 to 100 nM
